The source of these data is patent publication US6579864B1, “3-methylene steroid derivatives” (Akzo Nobel NV, priority 1999, dated 2003).

For series [1], the system named is DTH reaction in Balb/c mice. Kind of series: Delayed type hypersensitivity (DTH) reaction, Tetanus Toxoid footpad swelling. It counts as in vivo. Conditions: female Balb/c mice, sc. once daily day 1-11, Tetanus Toxoid immunization day 2, challenge day 9, footpad swelling. As to the method: In the delayed type hypersensitivity (DTH) procedure, the effect of a compound on the development of an immune reaction can be observed in mice (details in example 16). Briefly, the compound is administered daily and the animals are immunized subsequently with an antigen in adjuvant. After 7 days the animals are challenged locally by injecting the antigen locally (mostly in the foot) and measuring the subsequently developing local swelling in response to the deposition of the antigen. The degree of this swelling is related to the development of an immune response against the eliciting antigen. The inhibiting action of a compound of this invention on the development of this swelling can be determined, by comparing the treatment group with a placebo treated group. As a reference treatment, administration of glucocorticoids can be used.
Groups of eight female Balb/c (Harlan, Zeist, The Netherlands) mice were used, approximately 8 weeks of age at the start of the experiment. These mice were housed in Macrolon cages, under standard conditions and acclimatized for 3-5 days before the start of the experiment. The groups received either compound or placebo.
They were weighed on day 1 and on the last treatment day. Animals were treated once daily by subcutaneous (sc) injection in the back of the neck or by oral gavage from day 1 till day 11 with a test compound in concentration range from 1.2, 3, 4, 6, to 12 mg/kg. The injection volume was 0.1 mL of a vehicle for injection consisting of physiological saline containing 0.5% gelatin and 5% mannitol. A placebo treated group (vehicle only) and a group treated with 4 mg/kg dexamethasone as reference compound were included in each experiment.
On day 2, animals were immunized with 0.1 ml of a stable suspension of 3.75 Lf Tetanus Toxoid antigen (TT from the RIVM, Zeist, The Netherlands) in 1 mg/ml dimethyl dioctadecylammonium bromide (DDA) from Phase Sep, at 2 places on the breast intradermally.
On day 9 animals were challenged on the ventral side of the right [R] paw with 0.05 mL of a solution containing 50 Lf TT and 1 mg Al(OH)3 per mL. The left [L] footpad (control) received the vehiculum with Al(OH)3 only. After 24 and 48 hours, the left and right footpad thickness (parameters L and R, respectively) were measured with a calipers densitometer in mm and the percentage of antigen-specific footpad swelling was calculated according to the formula: [(R−L)/L]×100%. Results

With `C#CC1(O)CCC2C3C(C)CC45CC(=C)CCC4(O5)C3CCC21C` (stereo not drawn) [example 3, (5β,7α,17α)-5,10-epoxy-7-methyl-3-methylene-19-norpregn-20-yn-17-ol], the “Amount of compound given sc. in mg/kg leading to 50% reduction of the DTH reaction as compared to placebo” value in series [1] was determined as 11 mg/kg. For the molecule `C=C1CCC2=C(C1)C[C@@H](C)[C@@H]1[C@@H]2CC[C@]2(C)[C@@H](O)CC[C@@H]12` [example 2, (7α,17β)-7-methyl-3-methyleneestr-5(10)-en-17-ol], the melting point is 111.8 °C. The “Amount of compound given sc. in mg/kg leading to 50% reduction of the DTH reaction as compared to placebo” value in series [1] was found to be 20 mg/kg. `C=C1CC[C@H]2[C@@H](C1)C[C@@H](C)[C@@H]1[C@@H]2CC[C@@]2(C)[C@H]1CC[C@@]2(O)CC` [example 7, (5β,7α,17α)-7-Methyl-3-methylene-19-norpregnan-17-ol]: the “Amount of compound given sc. in mg/kg leading to 50% reduction of the DTH reaction as compared to placebo” value in series [1] is 6 mg/kg.

`C=C1CC[C@@]23O[C@]2(C1)C[C@@H](C)[C@H]1[C@@H]2CC[C@H](O)[C@@]2(C)CC[C@@H]13` [example 4, (5β,7α,17β)-5,10-epoxy-7-methyl-3-methyleneestran-17-ol]: the melting point was 125 °C. The “Amount of compound given sc. in mg/kg leading to 50% reduction of the DTH reaction as compared to placebo” value in series [1] is reported as >20 mg/kg. Regarding `C#CC1(O)CCC2C3C(C)CC4=C(CCC(=C)C4)C3CCC21C` (stereo not drawn) [example 1, (7α,17α)-7-methyl-3-methylene-19-norpregn-5(10)-en-20-yn-17-ol], in series [1], the “Amount of compound given sc. in mg/kg leading to 50% reduction of the DTH reaction as compared to placebo” value lay in the range of 1.9 to 3.4 mg/kg. On the same count and under the same terms, the result for `C=C[C@]1(O)CC[C@H]2[C@H]3[C@H](CC[C@@]21C)[C@H]1CCC(=C)C[C@@H]1C[C@H]3C` [example 5, (5α,7α,17α)-7-methyl-3-methylene-19-norpregn-20-en-17-ol] reads 10 mg/kg.

One may read the melting point as the temperature of the solid-liquid transition.
